# Reference: US20080044474A1, “Dispersions of nanoureas comprising biologically active compounds” (Bayer MaterialScience AG, priority 2006, published 2008)
# Experiments:
# Type in all cases: cell-based
# [1] = system: Staphylococcus epidermidis (ATC 14990); assay: Agar plate inhibition halo test according to Example 5, overnight culture
# Experimental: Cells of Staphylococcus epidermidis 498 and Bacillus subtilis 168 are plated out on agar plates such that, after incubation overnight at 37° C., they have formed a visible cell lawn on the agar. […] A hole was in each case punched in the centre of the plates. […] After incubation overnight, the agar was examined for diffusing antibiotic active compounds in that the missing cell lawn around the punched-out hole can be seen (“inhibition halos”). These inhibition halos were compared with an agar plate without further additives and an agar plate with an active compound-free nanourea dispersion. A test according to Example 5 was carried out in an overnight culture of Staphylococcus epidermidis (ATC 14990). The underlying active compound-loaded dispersions F to K were in turn prepared analogously to Example 2. As comparisons L to O, aqueous solutions having various concentrations of ciprofloxacin (Cipro) were additionally tested.
# [2] = system: Bacillus subtilis 168; assay: Agar plate inhibition halo test of active compound-loaded nanourea dispersions; conditions: 100 μl dialysed active compound-loaded nanourea dispersion of Example 2 (about 3% active compound on solids), incubation overnight, Müller-Hinton agar
# Experimental: (§1) Cells of Staphylococcus epidermidis 498 and Bacillus subtilis 168 are plated out on agar plates such that, after incubation overnight at 37° C., they have formed a visible cell lawn on the agar. The agar contained a complex nutrient-rich medium (Müller-Hinton medium, OD600=0.1 set; 200 μl plated out per plate, dried at room temperature for one hour). A hole was in each case punched in the centre of the plates.
# [3] = system: Staphylococcus epidermidis 498; assay: as above; conditions: 100 μl dialysed active compound-loaded nanourea dispersion of Example 2 (about 3% active compound on solids), incubation overnight, Müller-Hinton agar
# Experimental: as §1
# [4] = active compound-loaded nanourea dispersion prepared analogously to Example 2
molecule,measurement,setting,value
CC(=O)Oc1ccccc1C(=O)O [Acetylsalicylic acid],Inhibition halo,[1]; [4],13 mm
"O=C(O)c1cn(C2CC2)c2cc(N3CCNCC3)c(F)cc2c1=O [Cipro, Ciprofloxacin]",Inhibition halo,"[1]; aqueous solution, 0.001 mM (comparison O)",11 mm
same,Inhibition halo,"[1]; aqueous solution, 0.01 mM (comparison N)",26 mm
same,Inhibition halo,"[1]; aqueous solution, 0.1 mM (comparison M)",36 mm
same,Inhibition halo,"[1]; aqueous solution, 1 mM (comparison L)",43 mm
C=O [Formaldehyde],Inhibition halo,[1]; [4],21 mm
COCN(COC)c1nc(N(COC)COC)nc(N(COC)COC)n1 [Hexamethoxymethylmelamine],Inhibition halo,[1]; [4],13 mm
O=C(O)c1ccccc1O [Salicylic acid],Inhibition halo,[1]; [4],38 mm
O=[N+]([O-])[O-].[Ag+] [Silver nitrate],Inhibition halo (diameter minus the diameter of the punched-out hole),[2],300 μm
same,Inhibition halo (diameter minus the diameter of the punched-out hole),[3],400 μm
Potassium iodide-iodine complex,Inhibition halo,[1]; [4],14 mm
